Our source for the ΔTm and Activity values is ChEMBL document CHEMBL5223108, “Aiming to improve binding of porphyrin diphenyl guanidinium conjugates to guanine-quadruplexes: When size matters” (Bioorg Med Chem Lett, 2022).

Activity calls are given as the source filed them. The rule behind the calls is not given here.

Assay [1] deals with Quadruplex DNA. The assay can be described thus: Binding affinity to human c-KIT1 G4 quadruplex DNA assessed as change in melting temperature at 10 uM by UV analysis. In kind it is nucleic-acid assay.
In assay [2] the test system is Quadruplex DNA. The assay can be described thus: Binding affinity to human c-KIT2 G4 quadruplex DNA assessed as change in melting temperature at 10 uM by UV analysis. The format is nucleic-acid assay.
Assay [3] deals with Quadruplex DNA. The assay can be described thus: Binding affinity to human 22AG_Na G4 quadruplex DNA assessed as change in melting temperature at 10 uM by UV analysis. In kind it is nucleic-acid assay.
Assay [4] concerns Quadruplex DNA. The assay can be described thus: Binding affinity to c-KIT1 G4 quadruplex DNA (unknown origin) assessed as change in melting temperature at 1:2 G4:ligand ratio by UV analysis (reference value: 66.5 degreeC). The format is nucleic-acid assay.
Assay [5] concerns Quadruplex DNA. The assay can be described thus: Binding affinity to c-KIT2 G4 quadruplex DNA (unknown origin) assessed as change in melting temperature at 1:2 G4:ligand ratio by UV analysis (reference value: 59.1 degreeC). The format is nucleic-acid assay.
Assay [6] relates to Quadruplex DNA. The assay can be described thus: Binding affinity to 22AG_K G4 quadruplex DNA (unknown origin) assessed as change in melting temperature at 1:2 G4:ligand ratio by UV analysis (reference value: 60.1 degreeC). In kind it is nucleic-acid assay.
Assay [7] deals with Quadruplex DNA. The assay can be described thus: Binding affinity to KRAS G4 quadruplex DNA (unknown origin) assessed as change in melting temperature at 1:2 G4:ligand ratio by UV analysis (reference value: 48.7 degreeC). In kind it is nucleic-acid assay.
In assay [8] the test system is Quadruplex DNA. The assay can be described thus: Binding affinity to 22AG_Na G4 quadruplex DNA (unknown origin) assessed as change in melting temperature at 1:2 G4:ligand ratio by UV analysis (reference value: 55.9 degreeC). The format is nucleic-acid assay.
The subject of assay [9] is Quadruplex DNA. The assay can be described thus: Binding affinity to 23TA G4 quadruplex DNA (unknown origin) assessed as change in melting temperature at 1:2 G4:ligand ratio by UV analysis (reference value: 59.5 degreeC). In kind it is nucleic-acid assay.
In another assay the test system is Salmonidae. The assay can be described thus: Binding affinity to salmon testes […] DNA assessed as change in melting temperature at 1:2 […] ratio by UV analysis (reference value: 66.6 degreeC).
Assay [10] relates to Quadruplex DNA. The assay can be described thus: Binding affinity to c-KIT1 G4 quadruplex DNA (unknown origin) by CD spectroscopy analysis. The format is nucleic-acid assay.
Assay [11] deals with Quadruplex DNA. The assay can be described thus: Binding affinity to 22AG_Na G4 quadruplex DNA (unknown origin) by CD spectroscopy analysis. In kind it is nucleic-acid assay.

What is called ΔTm is the change in melting temperature against a reference sample. Consider `N=C(N)Nc1ccc(Oc2ccc(NC(=N)NC(=O)Nc3ccc(-c4c5nc(c(-c6ccccc6)c6ccc([nH]6)c(-c6ccccc6)c6nc(c(-c7ccccc7)c7ccc4[nH]7)C=C6)C=C5)cc3)cc2)cc1`, for which the results for the ΔTm in the assay on Quadruplex DNA [1], in the assay on Quadruplex DNA [2] and with Quadruplex DNA [3] were 2.2 °C, above 20 °C and -2.7 °C, respectively.
For `N=C(N)Nc1ccc(Sc2ccc(NC(=N)NC(=O)Nc3ccc(-c4c5nc(c(-c6ccccc6)c6ccc([nH]6)c(-c6ccccc6)c6nc(c(-c7ccccc7)c7ccc4[nH]7)C=C6)C=C5)cc3)cc2)cc1`, in that order: 1 °C, above 20 °C and -4.9 °C.
As for `N=C(N)Nc1ccc(S(=O)(=O)c2ccc(NC(=N)NC(=O)Nc3ccc(-c4c5nc(c(-c6ccccc6)c6ccc([nH]6)c(-c6ccccc6)c6nc(c(-c7ccccc7)c7ccc4[nH]7)C=C6)C=C5)cc3)cc2)cc1`, the ΔTm was -7.84 °C in the assay on Quadruplex DNA [4]; -1.49 °C in the assay with Quadruplex DNA [5]; -1.05 °C in the assay on Quadruplex DNA [6]; 2.91 °C in the assay with Quadruplex DNA [7]; 10.2 °C with Quadruplex DNA [8]; 2.42 °C in the assay with Quadruplex DNA [9]. Also, in the assay on Salmonidae, the ΔTm stood at 0.02 °C. In addition, the outcome with Quadruplex DNA [10] and in the assay with Quadruplex DNA [11] was inactive.
